From patent US10307412B2, “Quinoline derivative against non-small cell lung cancer” (CHIA TAI TIANQING PHARMACEUTICAL GROUP CO., LTD., priority 2014, dated 2019)
Where a name gives a salt, the structure may show the parent alone.

How the values were obtained:
Assay type in all cases: in vivo, human
[1] = tested on: patients with non-small cell lung cancer; test: Randomized, double-blind, placebo-controlled trial in non-small cell lung cancer patients (Example 3); conditions: for progression-free survival (PFS, month) Mean / progression-free survival (PFS, month) P25 / progression-free survival (PFS, month) P50 / progression-free survival (PFS, month) P75: 12 mg once daily, two weeks on, one week rest
Description: (§1) In this paper, progression-free survival P25 refers to the time that 75% of the patients who participated in the disease had no progress in disease; Progressive survival P50 refers to the time that 50% of the patients who participated in the disease had no progress in disease; Progression-free survival P75 refers to the time that 25% of the patients who participated in the disease had no progress in disease; the progression-free survival was the mean value of the progression-free survival of the patient who participated in the results of statistics.
Randomized, double-blind, placebo-controlled trials were performed in patients with measurable lesions which were pathologically diagnosedas non-small cell lung cancer, who had received second-line or higher-line therapy, or those who were intolerable to aforementioned treatment, and who had been treated with other cytotoxic drugs, radiotherapy or surgery for more than four weeks. In this study, efficacy of the capsules of dihydrochloride of compound I was initially evaluated against placebo in the treatment of patients with non-small cell lung cancer. The primary outcome of the evaluation was progression-free survival (PFS). 117 patients with non-small cell lung cancer enrolled in this study, whose age was between 18-70. Among them, 57 patients were randomized into placebo group and 60 patients randomized into dihydrochloride of compound I group.
(§2) The above-mentioned eligible non-small cell lung cancer patients were treated with dihydrochloride of compound I/placebo for clinical trials. They were administered 12 mg/0 mg of compound I/placebo individually once daily for consecutive two weeks followed by one-week rest from administration, namely the period of a cycle regimen was three weeks (21 days), those who were ineligible for continuous therapy or whose disease were progressive disease (PD) according to the reassessment were excluded from the medication.
(§3) Results: A total of 117 patients with non-small cell lung cancer were enrolled in the study, including 57 patients randomized into placebo group and 60 patients randomized into dihydrochloride of compound I group. 43 patients in placebo group and 30 patients in dihydrochloride of compound I group were involved in data statistics, the remaining patients who dropped out or excluded from the study or those were still in follow-up were not included in the statistics.

[2] = tested on: left upper lobe lung adenocarcinoma (T4N3M1a, stage IV); test: Case report, stage IV lung adenocarcinoma (Example 6); conditions: for sum of the diameter of two measurable target lesions: baseline 58 mm
Experimental: A retired person, smoking for 30 years (20 cigarettes/day), underwent thyroid adenoma resection 10 years ago. […] From Aug. 1, 2013 to Sep. […] From Dec. 26, 2013 to Jan. […] On Jan. […] On Feb.
From Feb. 28, 2014, the capsule of dihydrochloride of compound I was taken orally at 12 mg once daily with repeated treatment cycles (treatment given for consecutive two weeks followed by one week of rest is one treatment cycle).

[3] = tested on: non-small cell lung cancer squamous cell carcinoma; test: Case report, non-small cell lung cancer squamous cell carcinoma (Example 8)
Experimental: EML4-ALK fusion gene had no mutation, EGFR gene had no mutation by gene detection.
From Mar. 26, 2013 to Jun. 5, 2013, the patient was treated with cisplatin and gemcitabine chemotherapy for 4 cycles, and the best efficacy was SD. After the end of the chemotherapy, they were treated with the local radiotherapy of the lung for 1 cycle, during which the adverse reactions was light. From Sep. 9, 2013 to Oct. 6, 2013, the patient was treated with cisplatin and gemcitabine chemotherapy for 2 cycles. December 2013, disease was found progression by review of CT. From Mar. 24, 2014, the patient was treated with docetaxel chemotherapy for 1 cycle. […] On Dec. […] Double lungs had multiple pulmonary bullae, which changed little than before; 3. Double lungs had inflammation, the scope of which was smaller than before; 4. Left clavicle, mediastinal and right hilar had multiple lymph nodes, which were slightly larger than before. From Jan. 7, 2015 to Jan. […] On Mar. […] On Mar. 6, 2015, the patient was treated with oral Tiggio treatment. […] On Jun.
From Jun. 4, 2015, the patient received dihydrochloride of compound I capsule treatment that one cycle plan was 12 mg dose once, q.d., and continuous medication for 2 weeks, and then suspended medication for 1 week. On Jun.

[4] = tested on: right lower lung adenocarcinoma (T4N2M1b, stage IV); test: Case report, stage IV lung adenocarcinoma (Example 5); conditions: for sum of the longest diameter of the two measurable lesions: baseline 45.7 mm
Experimental: 3, 2013, the capsule of dihydrochloride of compound I was taken orally at 12 mg once daily with repeated treatment cycles (treatment given for consecutive two weeks followed by one week of rest is one treatment cycle). Treatment toxicities were assessed at 4-week follow-up, and the number of blood cells and blood chemistry were analyzed every two or three weeks, treatment response was assessed based on CT scan as well.

[5] = tested on: patients with lung adenocarcinoma; test: Randomized, double-blind, placebo-controlled trial in lung adenocarcinoma patients (Example 4)
Description: as §1
Randomized, double-blind, placebo-controlled trials were performed in patients with measurable lesions which were pathologically diagnosedas lung adenocarcinoma, who had received second-line or higher-line therapy, or those who were intolerable to the aforementioned treatment, and who had been treated with other cytotoxic drugs, radiotherapy or surgery for more than four weeks. In this study, efficacy of the capsules of dihydrochloride of compound I was initially evaluated against placebo in the treatment of patients with lung adenocarcinoma. The primary outcome of the evaluation was progression-free survival (PFS). 104 patients with lung adenocarcinoma enrolled in this study, whose age was between 18-70. Among them, 50 patients were randomized into placebo group and 54 patients randomized into dihydrochloride of compound I group.
as §2, with “eligible” for “eligible non-small cell”, “adenocarcinoma” for “cancer”
as §3, with “104” for “117”, “with” for “with non-small cell”, “adenocarcinoma” for “cancer”, “50” for “57”, “54” for “60”, “37” for “43”

[6] = tested on: non-small cell lung cancer; test: Case report, non-small cell lung cancer, EGFR gene no mutation (Example 7)
Description: From Jun. […] From Oct. […] On Jan. […] From Jan. […] On Jul.

[7] = after three-week administration
[8] = after ten treatment cycles (210 days)
[9] = lung adenocarcinoma, 12 mg once daily, two weeks on, one week rest

COc1cc2c(Oc3ccc4[nH]c(C)cc4c3F)ccnc2cc1OCC1(N)CC1 [dihydrochloride of compound I, 1-[[[4-(4-fluoro-2-methyl-1H-indol-5-yl)oxy-6-methoxyquinolin-7-yl]oxy]methyl]cyclopropylamine dihydrochloride] was tested, and the “progression-free survival (PFS, month) Mean” value ([1]; age > 60) was 5.84 month, the “progression-free survival (PFS, month) P25” value ([1]; age > 60) was 2.83 month and the “progression-free survival (PFS, month) P50” value ([1]; age > 60) was 6.40 month. For the same compound, the “progression-free survival (PFS, month) P75” value ([1]; age > 60) was 8.30 month, the “progression-free survival (PFS, month) Mean” value ([1]; age ≤ 60) was 4.48 month and the “progression-free survival (PFS, month) P25” value ([1]; age ≤ 60) was 2.77 month. The “progression-free survival (PFS, month) P50” value ([1]; age ≤ 60) was 4.30 month, the “progression-free survival (PFS, month) P75” value ([1]; age ≤ 60) was 6.17 month and the “effect on progression-free survival versus placebo” value ([1]; patients with non-small cell lung cancer) was “significantly prolong progression-free survival”. The tolerance ([2]; 12 mg once daily orally) was “generally well tolerated”, the “lesion in anterior segment of left upper lobe lung, diameter” value (“lesion … of left upper lobe lung, diameter” below) ([2]; after 15-week administration) was 10 mm and the “lesion in mediastinal lymph node, diameter” value ([2]; after 15-week administration) was 15 mm. The “reduction of sum of target lesions” value ([2]; after 15-week administration) was 56.9%, the “sum of the diameter of two measurable target lesions” value ([2]; after 15-week administration) was 25 mm and the “lesion … of left upper lobe lung, diameter” value ([2]; after nine-week administration) was 10 mm. The “lesion in mediastinal lymph node, diameter” value ([2]; after nine-week administration) was 16 mm, the “reduction of sum of target lesions” value ([2]; after nine-week administration) was 55.2% and the “sum of the diameter of two measurable target lesions” value ([2]; after nine-week administration) was 26 mm. For the same compound, the “reduction of sum of target lesions” value [2, 7] was 37.9%, the “lesion in mediastinal lymph node, diameter” value ([2]; after three-week administration, baseline 21 mm) was 18 mm and the “lesion … of left upper lobe lung, diameter” value ([2]; after three-week administration, baseline 37 mm) was 18 mm. The “sum of the diameter of two measurable target lesions” value [2, 7] was 36 mm, the blood changes ([2]; during treatment) was “not significant” and the heart toxicity ([2]; during treatment) was “no heart toxicity related to the drug”. For the same compound, the “progression of non-target lesions and new lesions” value ([2]; during treatment) was “not observed”, the “response and clinical performance” value ([2]; given for 279 days, 14th treatment cycle) was “sustained response against tumor and good clinical performance” and the “lesion … of left upper lobe lung, diameter” value ([2]; six weeks administration) was 14 mm. The “lesion in mediastinal lymph node, diameter” value ([2]; six weeks administration) was 15 mm, the “reduction of sum of target lesions” value ([2]; six weeks administration) was 50% and the “sum of the diameter of two measurable target lesions” value ([2]; six weeks administration) was 29 mm. For the same compound, the “lesion … of left upper lobe lung, diameter” value ([2]; twelve weeks administration) was 10 mm, the “lesion in mediastinal lymph node, diameter” value ([2]; twelve weeks administration) was 16 mm and the “reduction of sum of target lesions” value ([2]; twelve weeks administration) was 55.2%. The “sum of the diameter of two measurable target lesions” value ([2]; twelve weeks administration) was 26 mm, the target lesion sum ([3]; Jul. 15, 2015) was 63 mm and the target lesion sum ([3]; Oct. 16, 2015) was 56 mm. The target lesion sum ([3]; Sep. 8, 2015) was 57 mm, the “reduction of total target lesions versus baseline” value ([3]; after 1 cycle (Jun. 25, 2015)) was 10 mm and the total target lesions ([3]; after 1 cycle (Jun. 25, 2015)) was 66 mm. The “tolerability of adverse reactions” value ([3]; until application date) was “could tolerate adverse reactions”, the tolerance ([4]; 12 mg once daily orally) was “well tolerated” and the “reduction of sum of the longest diameter” value [4, 8] was 43.1%. The “sum of the longest diameter of the two measurable lesions” value [4, 8] was 26 mm, the “reduction of sum of the longest diameter” value ([4]; after treatment for 6 weeks) was 31.22% and the “sum of the longest diameter of the two measurable lesions” value ([4]; after treatment for 6 weeks, 12 mg once daily orally) was 31.43 mm. The “blood routine examinations including the number of blood cells” value ([4]; during treatment) was “not significantly altered”, the “progression-free survival (PFS, month) Mean” value [5, 9] was 4.77 month and the “progression-free survival (PFS, month) P25” value [5, 9] was 2.77 month. For the same compound, the “progression-free survival (PFS, month) P50” value [5, 9] was 4.33 month, the “progression-free survival (PFS, month) P75” value [5, 9] was 6.87 month and the “effect on progression-free survival versus placebo” value ([5]; patients with lung adenocarcinoma) was “significantly prolong progression-free survival”. The “left temporal lobe nodules, head enhancement CT” value ([6]; Aug. 20, 2015) was “slightly smaller than baseline” and the “tolerability of adverse reactions” value ([6]; until application date) was “could tolerate adverse reactions”.

With CC(=O)O[C@@]12CO[C@@H]1C[C@H](O)[C@@]1(C)C(=O)[C@H](O)C3=C(C)[C@@H](OC(=O)[C@H](O)[C@@H](NC(=O)OC(C)(C)C)c4ccccc4)C[C@@](O)([C@@H](OC(=O)c4ccccc4)[C@H]21)C3(C)C [docetaxel, reference compound] the “adverse reactions after prior chemotherapy (medical history)” value ([3]; in vivo) was “bone marrow suppression, oral infection, pneumonia appeared”.

In the case of “gemcitabine/cisplatin [reference compound]”, the “outcome of prior therapy (medical history)” value ([2]; one treatment cycle each) is reported as “unsatisfactory”.
